According to PMC9516332 (Frontiers in Oncology, 2022):
Read-outs that look alike come from different tables or passages of the source.

How the values were obtained:
[1] = test system: 134 cancer cell lines; test: Cell viability assay (ATPlite, 72 hours), IC50 on cancer cell line panel
[2] = molecular target: panel of 255 wild-type kinases (Homo sapiens, UniProt Q9H422); test: Kinase panel profiling at 1 µmol/L (MSA or IMAP), percentage inhibition; format: biochemical; details: kinase HIPK3; 1 µmol/L single concentration; read-out: %-inhibition at 1 µmol/L, HIPK3
[3] = molecular target: panel of 255 wild-type kinases (Homo sapiens, UniProt Q16816); test: as above; format: biochemical; details: kinase PHKG1; 1 µmol/L single concentration; read-out: %-inhibition at 1 µmol/L, PHKG1
[4] = molecular target: panel of 255 wild-type kinases (Homo sapiens, UniProt P06241); test: as above; format: biochemical; details: kinase FYN [isoform a]; 1 µmol/L single concentration; read-out: %-inhibition at 1 µmol/L, FYN [isoform a]
[5] = molecular target: panel of 255 wild-type kinases (Homo sapiens, UniProt P48729); test: as above; format: biochemical; details: kinase CK1α; 1 µmol/L single concentration; read-out: %-inhibition at 1 µmol/L, CK1α
[6] = molecular target: panel of 255 wild-type kinases (Homo sapiens, UniProt Q13882); test: as above; format: biochemical; details: BRK kinase assay; 1 µmol/L single concentration; read-out: %-inhibition BRK
[7] = test system: AP-1060 (ETV6-NTRK3); test: Cell viability assay; details: read-out: IC50 in cell proliferation assay

Cn1cc(-c2cc3c(N4CCN(c5ncc([C@@](C)(N)c6ccc(F)cc6)cn5)CC4)ncnn3c2)cn1 [avapritinib]
IC50 ([1]; HEC-6, read-out: IC50 in cell proliferation assay): 20.9 µM | IC50 ([1]; Homo sapiens, 769-P, read-out: IC50 in cell proliferation assay): 3 µM | IC50 ([1]; Homo sapiens, 786-0, read-out: IC50 in cell proliferation assay): 11.8 µM | IC50 ([1]; Homo sapiens, A 172, read-out: IC50 in cell proliferation assay): 5.91 µM | IC50 ([1]; Homo sapiens, A204, read-out: IC50 in cell proliferation assay): 0.171 µM | IC50 ([1]; Homo sapiens, A498, read-out: IC50 in cell proliferation assay): 15.4 µM | IC50 ([1]; Homo sapiens, A549, read-out: IC50 in cell proliferation assay): 20.5 µM | IC50 ([1]; Homo sapiens, A704, read-out: IC50 in cell proliferation assay): 22.7 µM | IC50 ([1]; Homo sapiens, A-375, read-out: IC50 in cell proliferation assay): 17.8 µM | IC50 ([1]; Homo sapiens, A-427, read-out: IC50 in cell proliferation assay): 8.02 µM | IC50 ([1]; Homo sapiens, ACHN, read-out: IC50 in cell proliferation assay): 14.8 µM | IC50 ([1]; Homo sapiens, AN3-CA, read-out: IC50 in cell proliferation assay): 18.1 µM | IC50 ([1]; Homo sapiens, ASPC1, read-out: IC50 in cell proliferation assay): > 31.6 µM | IC50 ([1]; Homo sapiens, AU565, read-out: IC50 in cell proliferation assay): 10.1 µM | IC50 ([1]; Homo sapiens, BT-20, read-out: IC50 in cell proliferation assay): 27.7 µM | IC50 ([1]; Homo sapiens, BT-474, read-out: IC50 in cell proliferation assay): 7.71 µM | IC50 ([1]; Homo sapiens, BT-549, read-out: IC50 in cell proliferation assay): 5.18 µM | IC50 ([1]; Homo sapiens, BXPC-3, read-out: IC50 in cell proliferation assay): 0.292 µM | IC50 ([1]; Homo sapiens, C-33-A, read-out: IC50 in cell proliferation assay): 4.64 µM | IC50 ([1]; Homo sapiens, CAL-27, read-out: IC50 in cell proliferation assay): 11 µM | IC50 ([1]; Homo sapiens, CCF-STTG1, read-out: IC50 in cell proliferation assay): 5.69 µM | IC50 ([1]; Homo sapiens, CCRF-CEM, read-out: IC50 in cell proliferation assay): 8.33 µM | IC50 ([1]; Homo sapiens, COLO 205, read-out: IC50 in cell proliferation assay): 10.7 µM | IC50 ([1]; Homo sapiens, COLO-829, read-out: IC50 in cell proliferation assay): 10.1 µM | IC50 ([1]; Homo sapiens, DLD-1, read-out: IC50 in cell proliferation assay): 15.2 µM | IC50 ([1]; Homo sapiens, DU-145, read-out: IC50 in cell proliferation assay): 9.13 µM | IC50 ([1]; Homo sapiens, DU-4475, read-out: IC50 in cell proliferation assay): 7.09 µM | IC50 ([1]; Homo sapiens, Daoy, read-out: IC50 in cell proliferation assay): 27.8 µM | IC50 ([1]; Homo sapiens, DoTc2-4510, read-out: IC50 in cell proliferation assay): 16.3 µM | IC50 ([1]; Homo sapiens, EOL1, read-out: IC50 in cell proliferation assay): 0.000567 µM | IC50 ([1]; Homo sapiens, FaDu, read-out: IC50 in cell proliferation assay): 9.3 µM | IC50 ([1]; Homo sapiens, G-361, read-out: IC50 in cell proliferation assay): 9.28 µM | IC50 ([1]; Homo sapiens, HCC827, read-out: IC50 in cell proliferation assay): 14 µM | IC50 ([1]; Homo sapiens, HCC4006, read-out: IC50 in cell proliferation assay): 8.01 µM | IC50 ([1]; Homo sapiens, HCT-15, read-out: IC50 in cell proliferation assay): 6.36 µM | IC50 ([1]; Homo sapiens, HCT-116, read-out: IC50 in cell proliferation assay): 8.76 µM | IC50 ([1]; Homo sapiens, HEC-1, read-out: IC50 in cell proliferation assay): 17 µM | IC50 ([1]; Homo sapiens, HEC-1B, read-out: IC50 in cell proliferation assay): 8.74 µM | IC50 ([1]; Homo sapiens, HL-60, read-out: IC50 in cell proliferation assay): 5.2 µM | IC50 ([1]; Homo sapiens, HT, read-out: IC50 in cell proliferation assay): 22.9 µM | IC50 ([1]; Homo sapiens, HT-1080, read-out: IC50 in cell proliferation assay): 9.14 µM | IC50 ([1]; Homo sapiens, Hs746T, read-out: IC50 in cell proliferation assay): 1.81 µM | IC50 ([1]; Homo sapiens, Hs-578T, read-out: IC50 in cell proliferation assay): 16.8 µM | IC50 ([1]; Homo sapiens, HuTu80, read-out: IC50 in cell proliferation assay): 5.13 µM | IC50 ([1]; Homo sapiens, J82, read-out: IC50 in cell proliferation assay): 24.4 µM | IC50 ([1]; Homo sapiens, Jurkat E6.1, read-out: IC50 in cell proliferation assay): 4.07 µM | IC50 ([1]; Homo sapiens, K562, read-out: IC50 in cell proliferation assay): 6.03 µM | IC50 ([1]; Homo sapiens, KATO III, read-out: IC50 in cell proliferation assay): 6.66 µM | IC50 ([1]; Homo sapiens, KG-1, read-out: IC50 in cell proliferation assay): 1.92 µM | IC50 ([1]; Homo sapiens, KLE, read-out: IC50 in cell proliferation assay): 5.61 µM | IC50 ([1]; Homo sapiens, KMS-11, read-out: IC50 in cell proliferation assay): 6.59 µM | IC50 ([1]; Homo sapiens, KU812, read-out: IC50 in cell proliferation assay): 3.11 µM | IC50 ([1]; Homo sapiens, Kasumi 1, read-out: IC50 in cell proliferation assay): 0.075 µM | IC50 ([1]; Homo sapiens, LC-2-ad, read-out: IC50 in cell proliferation assay): 4.91 µM | IC50 ([1]; Homo sapiens, LNCaP-Clone-FGC, read-out: IC50 in cell proliferation assay): 16 µM | IC50 ([1]; Homo sapiens, LS174T, read-out: IC50 in cell proliferation assay): 6.55 µM | IC50 ([1]; Homo sapiens, LS-411N, read-out: IC50 in cell proliferation assay): 10.8 µM | IC50 ([1]; Homo sapiens, LoVo, read-out: IC50 in cell proliferation assay): 6.42 µM | IC50 ([1]; Homo sapiens, MCF7, read-out: IC50 in cell proliferation assay): 17.3 µM | IC50 ([1]; Homo sapiens, MDA-MB-231, read-out: IC50 in cell proliferation assay): 8.5 µM | IC50 ([1]; Homo sapiens, MDA-MB-453, read-out: IC50 in cell proliferation assay): 1.08 µM | IC50 ([1]; Homo sapiens, MDA-MB-468, read-out: IC50 in cell proliferation assay): 12.6 µM | IC50 ([1]; Homo sapiens, MG-63, read-out: IC50 in cell proliferation assay): 11.1 µM | IC50 ([1]; Homo sapiens, MIA PaCa-2, read-out: IC50 in cell proliferation assay): 11 µM | IC50 ([1]; Homo sapiens, MKN-45, read-out: IC50 in cell proliferation assay): 5.03 µM | IC50 ([1]; Homo sapiens, MOLM-13, read-out: IC50 in cell proliferation assay): 0.465 µM | IC50 ([1]; Homo sapiens, MOLT-4, read-out: IC50 in cell proliferation assay): 6.63 µM | IC50 ([1]; Homo sapiens, MV4-11, read-out: IC50 in cell proliferation assay): 0.47 µM | IC50 ([1]; Homo sapiens, MeWo, read-out: IC50 in cell proliferation assay): > 31.6 µM | IC50 ([1]; Homo sapiens, NCCIT, read-out: IC50 in cell proliferation assay): 3.52 µM | IC50 ([1]; Homo sapiens, NCI-H82, read-out: IC50 in cell proliferation assay): 2.42 µM | IC50 ([1]; Homo sapiens, NCI-H460, read-out: IC50 in cell proliferation assay): 16 µM | IC50 ([1]; Homo sapiens, NCI-H661, read-out: IC50 in cell proliferation assay): 1.66 µM | IC50 ([1]; Homo sapiens, NCI-H716, read-out: IC50 in cell proliferation assay): 6.81 µM | IC50 ([1]; Homo sapiens, NCI-H1650, read-out: IC50 in cell proliferation assay): 19.6 µM | IC50 ([1]; Homo sapiens, NCI-H1975, read-out: IC50 in cell proliferation assay): 11.1 µM | IC50 ([1]; Homo sapiens, NCI-H2228, read-out: IC50 in cell proliferation assay): 9.99 µM | IC50 ([1]; Homo sapiens, OVCAR-3, read-out: IC50 in cell proliferation assay): 22.1 µM | IC50 ([1]; Homo sapiens, PFSK-1, read-out: IC50 in cell proliferation assay): 13.8 µM | IC50 ([1]; Homo sapiens, RL95-2, read-out: IC50 in cell proliferation assay): 28.3 µM | IC50 ([1]; Homo sapiens, RPMI-7951, read-out: IC50 in cell proliferation assay): 13.5 µM | IC50 ([1]; Homo sapiens, RS4-11, read-out: IC50 in cell proliferation assay): 21 µM | IC50 ([1]; Homo sapiens, Rec1, read-out: IC50 in cell proliferation assay): 28.9 µM | IC50 ([1]; Homo sapiens, SHP77, read-out: IC50 in cell proliferation assay): 2.22 µM | IC50 ([1]; Homo sapiens, SK-BR-3, read-out: IC50 in cell proliferation assay): 8.31 µM | IC50 ([1]; Homo sapiens, SK-N-AS, read-out: IC50 in cell proliferation assay): 20.8 µM | IC50 ([1]; Homo sapiens, SK-N-FI, read-out: IC50 in cell proliferation assay): > 31.6 µM | IC50 ([1]; Homo sapiens, SK-N-MC, read-out: IC50 in cell proliferation assay): 6.43 µM | IC50 ([1]; Homo sapiens, SK-N-SH, read-out: IC50 in cell proliferation assay): 7.42 µM | IC50 ([1]; Homo sapiens, SNU-5, read-out: IC50 in cell proliferation assay): 9.36 µM | IC50 ([1]; Homo sapiens, SNU-16, read-out: IC50 in cell proliferation assay): 2.03 µM | IC50 ([1]; Homo sapiens, SNU-C2B, read-out: IC50 in cell proliferation assay): 10.5 µM | IC50 ([1]; Homo sapiens, SU-DHL-1, read-out: IC50 in cell proliferation assay): 2.31 µM | IC50 ([1]; Homo sapiens, SU-DHL-6, read-out: IC50 in cell proliferation assay): 3.18 µM | IC50 ([1]; Homo sapiens, SUP-T1, read-out: IC50 in cell proliferation assay): 9.11 µM | IC50 ([1]; Homo sapiens, SW48, read-out: IC50 in cell proliferation assay): 5.58 µM | IC50 ([1]; Homo sapiens, SW480, read-out: IC50 in cell proliferation assay): 25.4 µM | IC50 ([1]; Homo sapiens, SW626, read-out: IC50 in cell proliferation assay): 20.2 µM | IC50 ([1]; Homo sapiens, SW780, read-out: IC50 in cell proliferation assay): 19.3 µM | IC50 ([1]; Homo sapiens, SW837, read-out: IC50 in cell proliferation assay): > 31.6 µM | IC50 ([1]; Homo sapiens, SW872, read-out: IC50 in cell proliferation assay): 6.31 µM | IC50 ([1]; Homo sapiens, SW900, read-out: IC50 in cell proliferation assay): 21.9 µM | IC50 ([1]; Homo sapiens, SW948, read-out: IC50 in cell proliferation assay): 14 µM | IC50 ([1]; Homo sapiens, SW982, read-out: IC50 in cell proliferation assay): 10.8 µM | IC50 ([1]; Homo sapiens, SW-620, read-out: IC50 in cell proliferation assay): > 31.6 µM | IC50 ([1]; Homo sapiens, T98G, read-out: IC50 in cell proliferation assay): 0.372 µM | IC50 ([1]; Homo sapiens, TCC-SUP, read-out: IC50 in cell proliferation assay): 2.7 µM | IC50 ([1]; Homo sapiens, THP-1, read-out: IC50 in cell proliferation assay): 5.42 µM | IC50 ([1]; Homo sapiens, U2OS, read-out: IC50 in cell proliferation assay): 16.3 µM | IC50 ([1]; Homo sapiens, U-87 MG, read-out: IC50 in cell proliferation assay): 22.9 µM | IC50 ([1]; Homo sapiens, U-118-MG, read-out: IC50 in cell proliferation assay): 1.1 µM | IC50 ([1]; Homo sapiens, UMUC3, read-out: IC50 in cell proliferation assay): 5.49 µM | IC50 ([1]; Hs766T, read-out: IC50 in cell proliferation assay): > 31.6 µM | IC50 ([1]; L-82, read-out: IC50 in cell proliferation assay): 8.39 µM | IC50 ([1]; Rh30, read-out: IC50 in cell proliferation assay): 14.9 µM | inhibition at 1 µM [2]: -0.071% | inhibition at 1 µM [3]: -0.381% | inhibition at 1 µM [4]: 57% | inhibition at 1 µM [5]: 5% | inhibition at 1 µM [6]: 0.682% | IC50 [7]: 3.46 µM
